Structures can show the parent of a compound that is named as a salt.

For one series, the target named is h-Sortilin (Homo sapiens (Human), UniProt Q99523). The series is described as follows: Neurotensin (NTS) scintillation proximity assay (SPA): displacement of [3H]-neurotensin binding. As to conditions: 150 nM 6his-Sortilin, 5 nM [3H]-Neurotensin; average of at least 2 determinations. Put shortly: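 Scintillation proximity format measuring displacement of [3H]-neurotensin from human sortilin. IC50 by nonlinear variable-slope sigmoid regression, averaged over at least 2 determinations.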
A general note: Scintillation proximity formats need no separation of bound from free tracer.

A short description of series [1]: Brain homogenate binding by rapid equilibrium dialysis. It is filed as in vitro ADME. The note with it: 37° C.; for Mouse Brain Unbound (Fu, %): 5 μM, 4 hours, dilution factor 5; for fraction unbound at 4 h, 5 μM: CD1, pH 7.4, mouse brain homogenate, dilution factor 5, read-out: Mouse Brain Unbound (Fu, %). The protocol: (§1) Rapid Equilibrium Dialysis The test compounds were incubated in CD1-mouse plasma and brain homogenate at 37° C. in RED device with inserts (8K MWCO, Thermo scientific) for 4 hours at 5 μM in triplicates. 350 μL of 150 mM phosphate buffered saline (PBS, pH 7.4) was used as the receiver side solutions. The samples were collected from both sides after 4 hours equilibration time and their matrices were made similar by diluting the donor side sample using blank PBS, and by diluting the receiver side sample using blank plasma/phosphate buffered saline. After the incubation, aliquots of donor side matrixes were diluted with an equal volume of the blank receiver side matrix and aliquots of receiver side matrixes were diluted with an equal volume of blank donor side matrix. All samples were protein precipitated by addition of a two-fold volume of acetonitrile containing 100 nM of repaglinide as an internal standard. After 10-minute centrifugation at 13 200 rpm, the sample supernatants were analysed with an LC-MS/MS, to obtain the unbound fraction of the test compound (Fub). The unbound fraction was calculated from the peak area ratios obtained for each matrix: […]
(§2) Recovery samples were prepared in each condition but without dialysis, and were used for evaluation of recovery from the dialysis experiment using following formula: […]
(§3) where VPBS is the volume on the receiver side (PBS) and Vplasma is the volume on donor side (plasma) of the dialysis device. Crecovery is the analyte concentration measured from the recovery sample.
(§4) Propranolol (1 μM) and fluoxetine (5 μM) were included in the experiment as a control compounds.
The unbound fraction in brain (Fub, brain) was calculated from the measured value in brain homogenate (Fub, meas), taking into account the dilution factor used in preparing the brain homogenate:
where D=dilution factor (here 5).
A general note: In equilibrium dialysis free small molecules cross a membrane that holds back macromolecules.

The nature of series [2]: Plasma protein binding by rapid equilibrium dialysis. It is filed as in vitro ADME. As to conditions: 37° C.; for Mouse Plasma Unbound (Fu, %): CD1-mouse plasma, 5 μM, 4 hours; for fraction unbound at 4 h, 5 μM: pH 7.4, CD1-mouse plasma, read-out: Mouse Plasma Unbound (Fu, %). The protocol: as §1
where CPBS and Cplasma are the analyte concentrations in PBS (receiver) and plasma (donor), respectively.
as §2, §3, §4

Series [3] can be described thus: Blood-brain-barrier permeability of study compounds in mice after PO administration. The note with it: mouse; for Kp uu at 1 h: brain and plasma (unbound concentrations), oral, Kpuu, ratio of unbound brain to unbound plasma concentration; for concentration at 1 h: po, T = 1 hour; for blood brain barrier penetration: conclusion in words.
Experimental: (§12) Separately, the fraction of compound bound to plasma protein or brain homogenate was measured to allow assessment of free fractions.
(§13) In practice, unbound fractions in plasma and brain tissue were assessed using rapid equilibrium dialysis in vitro. Separately a pharmacokinetic study was run in vivo whereby a dose of the compound of interest was given at T=0 hours and at subsequent timepoints (eg 0.5, 1 and 4 hours) plasma and separately brain samples were analysed for total concentration of the compound of interest. These total concentrations could then be adjusted with the unbound fraction to give the unbound concentrations in the plasma and brain. The unbound partition coefficient (Kpuu) was then determined as a ratio between the free compound concentrations in the compartment of interest, here the brain/CNS and the plasma.
(§14) The compound is administered to the animal in a suitable vehicle at T=0 hours. At one hour post administration plasma and separately brain are removed, prepared and analysed for total compound concentration.
(§15) Mouse brain samples were prepared for analysis by homogenization with Omni bead ruptor, using 4-fold volume of 150 mM phosphate buffered saline (PBS) (E.g. 400 uL PBS+100 mg brain). After homogenization, a 30 μL homogenate sample was mixed with 60 μL of internal standard solution (100 ng/ml of repaglinide and phenacetin in acetonitrile (ACN) containing 1% formic acid) and mixed. Samples were centrifuged for 20 minutes (4000 rpm, Thermo Scientific SL16) and 50 μl of supernatant, together with 100 μl of 50% acetonitrile was transferred on an analytical plate. Standard samples were prepared by spiking blank brain homogenate to obtain concentrations from 0.1 to 10 000 ng/ml in brain homogenate by using one volume of spiking solution and nine volumes of blank homogenate. Quality control (QC) samples were prepared for concentrations at 3, 30, 300 and 3000 ng/ml by using one volume of spiking solution and nine volumes of blank brain homogenate. The standards and QCs were then prepared for analysis similarly as the samples. Blank brain matrix was collected in-house from CD-1 mice.
(§16) The samples were prepared by mixing 30 μL of plasma sample with 60 μL of internal standard solution (100 ng/ml of repaglinide and phenacetin in ACN with 1% of formic acid) and mixed. Samples were centrifuged for 20 minutes (4000 rpm, Thermo Scientific SL16) and 50 μl of supernatant, together with 100 μl of 50% acetonitrile was transferred on analytical plate. 10 μl of diluted samples were transferred on analytical plate and further diluted with 190 μl of 50% acetonitrile. Standard samples were prepared by spiking blank plasma to obtain concentrations from 0.1 to 10 000 ng/ml in plasma by using one volume of spiking solution and nine volumes of blank plasma. Quality control (QC) samples were prepared for concentrations at 3, 30, 300 and 3000 ng/ml by using one volume of spiking solution and nine volumes of plasma. The standards and QCs were then prepared for analysis similarly as the samples. Blank plasma was collected in-house from CD-1 mice.
(§17) Instrumentation: Waters Acquity UPLC+Waters TQ-S triple quadrupole MS; Column: Waters Acquity HSS T3 (2.1×50 mm, 1.8 μm) column with pre-column filter; Gradient Elution; A=0.1% Formic acid, B=Acetonitrile
The target in the next series is mouse Sortilin (Mus musculus (Mouse), UniProt Q6PHU5). The series is described as follows: Creoptix (GCI) binding kinetics, mouse Sortilin. As to conditions: screened at 1 μM. The protocol: (§5) A protein, bound to a surface, is bathed in a solution containing potential ligands giving rise to binding kinetics to generate Kon and Koff rates, as well as a Kd.
(§6) All buffers described were filtered using a 0.2 μm filter (Product number: 10300461, Nalgene) and degassed for 15 minutes prior to use.
(§7) A flow cell temperature of 25 degrees Celsius was used throughout the experiment.
(§8) A 4PCH chip was conditioned across all flow cells using 0.2× concentration running buffer (running buffer composition: 1×HBS-N, pH 7.4, 3.4 mM EDTA, 1% DMSO) using pre-set conditioning wizard (WAVE control software) injecting: 0.1 M borate, 1 M NaCl (pH 9) followed by three start-up injections of 0.2× running buffer.
(§9) A buffer exchange was performed and 1× running buffer (1×HBS-N, pH 7.4, 3.4 mM EDTA, 1% DMSO) used during the immobilisation procedure:
(§10) An initial injection of EDC/NHS (mixed in 1:1 ratio) was performed across all 4-flow cells to activate the surface for amine coupling of ligands.
Recombinant Sortilin aliquots were thawed quickly by hand and centrifuged at 13,300 rpm for 10 minutes. […]
(§11) Data was evaluated using the RAPID kinetic analysis tool in the GCI WAVE_control software with data fitted using a standard 1:1 kinetic BioModel.

In the next series the target is human Sortilin (Homo sapiens (Human), UniProt Q99523). The series is described as follows: Creoptix (GCI) binding kinetics, human Sortilin. As to conditions: screened at 1 μM. The protocol:
as §5, §6, §7, §8, §9, §10
Recombinant Sortilin aliquots were thawed quickly by hand and centrifuged at 13,300 rpm for 10 minutes. A 10 μg/ml protein solution was then made in pH 5.0 acetate and injected once for 20 minutes over flow-cells 2, 3 and 4 for human, human (flow cells 2 & 3), and mouse Sortilin respectively followed by a 60 second dissociation period.
A final 7-minute passivation injection of 50 mM tris was used across all flow cells.
A flow rate of 10 μl/min was used for all conditioning and immobilisation cycles.
Compounds were screened at 1 μM using the in-built ‘intermediate binders’ settings: 100 ul/min, 45 s baseline, 25 s association, 300 s dissociation, with blanks every 5th sample and a DMSO correction (1.5% DMSO at the start and end of the experiment as well as every 20 cycles. An acquisition rate of 10 Hz was used throughout the experiment.
Compounds were screened at a final assay concentration of 1 μM and a final DMSO concentration was 1%. To achieve this, compounds were diluted in DMSO from 10 mM stocks to 100 μM (100×final assay concentration) then diluted 1:100 in running buffer which contained no DMSO to establish a final assay concentration of compound of 1 μM and a final DMSO concentration of 1% [DMSO].
Compounds and DMSO were mixed by plate shaking at 1000 rpm for 60 seconds using a Bioshake instrument.
A flow rate of 100 μl/min was used throughout the experiment.
as §11

The next series can be described thus: in vivo. The note with it: mouse, Kpuu.
The mark [4] stands for this setting: brain, Brain Tissue Concentration (ng/g) T = 1 hour.
Where [5] appears, read: brain, Unbound Brain Concentration (ng/mL) T = 1 hour.
Where [6] appears, read: plasma, Total Plasma Concentration (ng/ml) T = 1 hour.
Where [7] appears, read: plasma, Unbound Plasma Concentration (ng/mL) T = 1 hour.

h-Sortilin, sequence (Q99523 78-831): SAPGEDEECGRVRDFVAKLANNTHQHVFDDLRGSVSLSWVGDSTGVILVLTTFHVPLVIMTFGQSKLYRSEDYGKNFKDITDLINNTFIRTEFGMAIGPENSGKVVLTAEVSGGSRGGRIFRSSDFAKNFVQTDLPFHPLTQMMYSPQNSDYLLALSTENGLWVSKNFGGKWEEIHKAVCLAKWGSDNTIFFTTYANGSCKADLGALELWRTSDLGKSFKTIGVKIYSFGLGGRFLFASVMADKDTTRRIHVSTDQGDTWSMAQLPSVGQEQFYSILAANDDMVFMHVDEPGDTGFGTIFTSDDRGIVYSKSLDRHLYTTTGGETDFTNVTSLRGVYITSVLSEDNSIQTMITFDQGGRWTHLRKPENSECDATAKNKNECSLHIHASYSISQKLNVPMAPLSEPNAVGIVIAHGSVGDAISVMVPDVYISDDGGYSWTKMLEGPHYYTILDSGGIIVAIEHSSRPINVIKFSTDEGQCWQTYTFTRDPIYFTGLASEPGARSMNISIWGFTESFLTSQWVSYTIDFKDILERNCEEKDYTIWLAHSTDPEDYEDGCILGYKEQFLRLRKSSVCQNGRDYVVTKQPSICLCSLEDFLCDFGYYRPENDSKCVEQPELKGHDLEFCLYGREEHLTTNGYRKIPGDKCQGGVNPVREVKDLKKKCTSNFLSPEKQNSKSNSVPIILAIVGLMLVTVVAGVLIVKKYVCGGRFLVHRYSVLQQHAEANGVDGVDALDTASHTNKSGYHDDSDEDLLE
human Sortilin, sequence (Q99523 78-755): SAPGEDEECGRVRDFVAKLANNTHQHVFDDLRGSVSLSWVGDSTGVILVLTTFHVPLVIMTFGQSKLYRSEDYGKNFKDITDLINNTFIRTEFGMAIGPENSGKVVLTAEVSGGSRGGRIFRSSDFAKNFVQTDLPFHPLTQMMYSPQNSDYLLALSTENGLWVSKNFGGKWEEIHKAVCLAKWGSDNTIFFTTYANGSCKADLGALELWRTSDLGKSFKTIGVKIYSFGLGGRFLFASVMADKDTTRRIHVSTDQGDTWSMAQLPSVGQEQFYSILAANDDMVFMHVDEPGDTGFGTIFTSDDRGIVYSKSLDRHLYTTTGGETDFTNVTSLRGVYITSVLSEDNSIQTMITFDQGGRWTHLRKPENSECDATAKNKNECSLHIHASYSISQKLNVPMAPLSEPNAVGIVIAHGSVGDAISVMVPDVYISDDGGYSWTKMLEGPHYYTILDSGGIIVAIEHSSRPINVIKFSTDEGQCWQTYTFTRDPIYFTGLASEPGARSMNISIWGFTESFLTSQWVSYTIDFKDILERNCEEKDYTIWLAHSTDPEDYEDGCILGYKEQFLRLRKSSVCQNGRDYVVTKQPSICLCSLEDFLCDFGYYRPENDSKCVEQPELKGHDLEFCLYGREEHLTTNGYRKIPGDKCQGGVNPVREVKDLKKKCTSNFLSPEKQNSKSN
mouse Sortilin, sequence (Q6PHU5 76-753): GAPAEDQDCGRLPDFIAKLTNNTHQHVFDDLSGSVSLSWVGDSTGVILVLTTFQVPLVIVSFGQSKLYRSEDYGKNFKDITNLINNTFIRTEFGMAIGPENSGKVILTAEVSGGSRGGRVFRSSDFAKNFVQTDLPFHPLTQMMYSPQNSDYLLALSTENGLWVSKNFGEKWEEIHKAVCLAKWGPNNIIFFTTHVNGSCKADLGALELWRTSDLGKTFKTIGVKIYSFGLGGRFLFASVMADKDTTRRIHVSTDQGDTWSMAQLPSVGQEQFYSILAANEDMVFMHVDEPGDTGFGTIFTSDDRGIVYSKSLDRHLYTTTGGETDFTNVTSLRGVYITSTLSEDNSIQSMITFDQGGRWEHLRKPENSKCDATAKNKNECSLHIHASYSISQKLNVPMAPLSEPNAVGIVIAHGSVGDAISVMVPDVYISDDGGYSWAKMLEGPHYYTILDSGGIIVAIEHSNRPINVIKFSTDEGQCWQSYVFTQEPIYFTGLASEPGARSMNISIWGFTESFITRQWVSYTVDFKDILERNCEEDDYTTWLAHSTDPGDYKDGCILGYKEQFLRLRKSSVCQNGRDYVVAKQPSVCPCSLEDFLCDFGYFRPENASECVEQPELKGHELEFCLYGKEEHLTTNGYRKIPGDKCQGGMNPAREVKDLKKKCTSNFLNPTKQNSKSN
Experimental for in vivo: as §12, §13, §14, §15, §16, §17

With `Cn1ccc2c(CN[C@@H](CCC(C)(C)C)C(=O)O)cccc21` [Example 6, (S)-5,5-dimethyl-2-(((1-methyl-1H-indol-4-yl)methyl)amino)hexanoic acid hydrochloride], the IC50 (as a rule, the concentration that inhibits the measured activity by half) at h-Sortilin amounted to 330 nM. In series [1], the “Mouse Brain Unbound (Fu, %)” value is 22.9%. In addition, the fraction unbound at 4 h, 5 μM in series [1] is 0.229; in series [2] it was 0.058. Moreover, the “Mouse Plasma Unbound (Fu, %)” value in series [2] amounted to 5.8%. The Kp uu at 1 h in series [3] was greater than 0.1. In addition, the concentration at 1 h in series [3] (setting [4]) was found to be 6.25 ng/g; in series [3] (setting [5]), 1.4 ng/mL; in series [3] (setting [6]), 138 ng/mL; in series [3] (setting [7]), 8 ng/mL. In addition, the “blood brain barrier penetration” value in series [3] is “permeate the blood brain barrier”.
In the case of `CC(C)(C)CC[C@H](NCc1cnc2ccccc2c1)C(=O)O` [Example 35, (2S)-5,5-dimethyl-2-{[(quinolin-3-yl)methyl]amino}hexanoic acid], the Kd (usually the constant that tells how readily two partners part at equilibrium) turned out to be 1050 nM at mouse Sortilin (Free acid) and 895 nM at human Sortilin (Free acid). This molecule gave a half-maximal inhibitory concentration (IC50) at h-Sortilin of 650 nM.
In the case of `Cc1cccc(NC(=O)c2ccc(C(F)(F)F)cc2C(=O)O)n1` [Comparative Example 1, reference compound], the Kp uu at 1 h in the series “in vivo” is less than 0.1. Besides, the concentration at 1 h in series [3] (setting [4]) amounted to 0.9 ng/g; in series [3] (setting [5]) it was 0.2 ng/mL; in series [3] (setting [6]), 393 ng/mL; in series [3] (setting [7]) it was 27 ng/mL. In addition, the “blood brain barrier penetration” value in series [3] is “did not show a blood brain barrier penetration”.
Take `COc1cccc(CN[C@@H](CCC(C)(C)C)C(=O)O)c1.Cl` [Example 5, (2S)-2-{[(3-methoxyphenyl)methyl]amino}-5,5-dimethylhexanoic acid]: the Kd on mouse Sortilin (HCl salt) worked out at 1020 nM; on human Sortilin (Free acid), 1930 nM; on human Sortilin (Ms salt) it was 423 nM; at human Sortilin (MsOH salt), 396 nM. Further, the 50% inhibitory concentration (IC50) at h-Sortilin was 560 nM. In addition, the “Mouse Brain Unbound (Fu, %)” value in series [1] was 29.1%. The fraction unbound at 4 h, 5 μM in series [1] was determined as 0.291; in series [2], 0.033. Further, the “Mouse Plasma Unbound (Fu, %)” value in series [2] amounted to 3.3%. Moreover, the Kp uu at 1 h in series [3] was greater than 0.1. In addition, the concentration at 1 h was found to be 48.5 ng/g in series [3] (setting [4]), 14 ng/mL in series [3] (setting [5]), 3560 ng/mL in series [3] (setting [6]) and 117 ng/mL in series [3] (setting [7]). Further, in series [3], the “blood brain barrier penetration” value is recorded as “permeate the blood brain barrier”.
Take `COc1ccc([C@H](N[C@@H](CCC(C)(C)C)C(=O)O)C(F)(F)F)cc1OC` [Example 114, (2S)-2-{[(1S)-1-(3,4-dimethoxyphenyl)-2,2,2-trifluoroethyl]amino}-5,5-dimethylhexanoic acid]: on human Sortilin (Free acid), the Kd came out at 132 nM. At h-Sortilin, this molecule returned a half-maximal inhibitory concentration (IC50) of 220 nM.
The molecule `COc1ccc(OC)c(CN[C@@H](CCC(C)(C)C)C(=O)O)c1` [Example 28, (2S)-2-{[(2,5-dimethoxyphenyl)methyl]amino}-5,5-dimethylhexanoic acid] displayed a Kd on human Sortilin (Free acid) of 1020 nM. The molecule further displayed an IC50 at h-Sortilin of 2220 nM.
Consider `COc1cc(Br)cc(CN[C@@H](CCC(C)(C)C)C(=O)O)c1` [Example 31, (2S)-2-{[(3-bromo-5-methoxyphenyl)methyl]amino}-5,5-dimethylhexanoic acid], for which binding on human Sortilin (Free acid) was characterised by a dissociation constant (Kd) of 432 nM. For the same molecule, at h-Sortilin, the concentration for half-maximal inhibition (IC50) was determined as 520 nM.
The like results for `COc1cccc(CN[C@@H](CCC(C)(C)C)C(=O)O)c1C` [Example 75, (2S)-2-{[(3-methoxy-2-methylphenyl)methyl]amino}-5,5-dimethylhexanoic acid] were, in that order, 443 nM and 980 nM.
Consider `COc1ccc([C@@H](C)N[C@@H](CCC(C)(C)C)C(=O)O)cc1OC` [Example 107, (2S)-2-{[(1R)-1-(3,4-dimethoxyphenyl)ethyl]amino}-5,5-dimethylhexanoic acid], for which the Kd on human Sortilin (Free acid) was determined as 443 nM. The molecule also had an IC50 on h-Sortilin of 930 nM.
As for `COc1cc(F)cc(CN[C@@H](CCC(C)(C)C)C(=O)O)c1` [Example 29, (2S)-2-{[(3-fluoro-5-methoxyphenyl)methyl]amino}-5,5-dimethylhexanoic acid], at human Sortilin (Free acid), the Kd was found to be 571 nM. At h-Sortilin, this molecule yielded an IC50 of 550 nM.
In the case of `COc1ccc([C@@H](C)N[C@@H](CCC(C)(C)C)C(=O)O)cc1C` [Example 102], binding on human Sortilin (Free acid) was put at a Kd of 407 nM. The same molecule registered an IC50 on h-Sortilin of 540 nM.

The record behind these values is patent US20250268854A1, “2-AMINO-5,5-DIMETHYLHEXANOIC ACID DERIVATIVES AS SORTILIN MODULATORS FOR USE IN THE TREATMENT OF DISEASE OF THE CENTRAL NERVOUS SYSTEM” (c/o Vesper Bio ApS, priority 2021, published 2025).
